*1 amine or outer side, *2 acyl side, *3 side chain or, on linkers, in order; H or OH if unused. Where a SMILES comes first, the peptide text is derived from it. Bridges are numbered along the chain shown (N, C = ends). [ ]: non-standard residue; d: D form. The star is where a group is joined. hPhe(3-Cl-4-CF3) = N[C@@H](CCc1ccc(C(F)(F)F)c(Cl)c1)C(=O)O; NPrPhe(4-CF3) = CCCN[C@@H](Cc1ccc(C(F)(F)F)cc1)C(=O)O; X1 = CCCCN([C@@H](Cc1ccc(C)cc1)C(=O)[*:2])[*:1]; X30 = CCN([C@H](C(=O)[*:2])C1CCCC1)[*:1]; NMeGly(cPent) = CN[C@H](C(=O)O)C1CCCC1; NMeD = CN[C@@H](CC(=O)O)C(=O)O; NMeL = CN[C@@H](CC(C)C)C(=O)O; Morpholide = C1CN(*)CCO1; NMeA = CN[C@@H](C)C(=O)O; Ac5c = NC1(C(=O)O)CCCC1; Aze = O=C(O)[C@@H]1CCN1; Ac4c = NC1(C(=O)O)CCC1; Sar = CNCC(=O)O
Experiments:
[1] = system: human lung cancer strain NCI-H441; format: cell-based
Procedure, shortened: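 Signal came from […] measured per well once the reagent was added. Beforehand, cells were cultured at 37°C and 5% carbon dioxide on a compound series serially diluted in dimethyl sulfoxide.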

[2] = target: GDP-bound KRAS wild-type protein (Homo sapiens, UniProt P01116); experiment: Binding to KRAS by surface plasmon resonance (SPR), dissociation constant KD; details: 1:1 binding model
Procedure: Surface plasmon resonance was used to analyze the binding affinity of compounds for KRAS, NRAS, and HRAS. The apparatus used was Biacore 8K, 8K+, or T200 (GE Healthcare), and the running buffer used was HBS (10 mM HEPES-NaOH, 150 mM NaCl, pH 7.4) containing 1 mM DTT, 10 mM MgCl2, 0.01% Tween 20, 10 µM GDP, and 4% DMSO.
Biotinylated Avi-tag fusion KRAS, NRAS, and HRAS proteins were expressed in E. coli BL21 (DE3) strains, and after cells were homogenized, they were purified using Streptavidin Mutein Matrix and Superdex 75. After purification, GDP-loaded KRAS, NRAS, and HRAS proteins were immobilized on the surface of Sensor Chip CAP (Cytiva) coated with Biotin CAPture Reagent in an immobilization amount of about 100 to 300 RU. Binding of each compound was evaluated by the Single Cycle Kinetics method, and a running buffer or a compound solution was added to the RAS protein non-immobilized surface and the immobilized surface to obtain a binding response. The flow rate was set to 100 µL/min, and in the compound-adding cycle, compound solutions having different concentrations were intermittently added for 75 seconds each, starting from a low concentration. […] In the blank cycle, a running buffer was intermittently added and not the compound solution. The Biotin CAPture Reagent and RAS proteins were immobilized for each cycle, and at the end of each cycle, the sensor chip was regenerated by the regeneration solution appended to the Biotin CAPture Kit (Cytiva). Measurement was carried out at 30°C.
The resulting sensorgram was subjected to curve fitting based on a 1:1 binding model on Biacore Insight Evaluation Software or T200 Evaluation Software, and thereby the dissociation constant KD of each compound with respect to KRAS, NRAS, and HRAS was determined. […] Blank indicates a compound from which the KD value with respect to NRAS or HRAS was not obtained.

[3] = target: GDP-bound NRAS wild-type protein (Homo sapiens, UniProt P01111); experiment: Binding to NRAS by surface plasmon resonance (SPR), KD and KD ratio to KRAS
Procedure, shortened: (§1)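 Recombinant RAS proteins bearing a biotinylated Avi tag and loaded with GDP served as the captured ligand, recaptured fresh every cycle. Binding responses were referenced to an uncoated surface and a buffer-only blank cycle. Dissociation constants were obtained by 1:1 model fitting at 30°C.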

HRAS wild-type protein = HRAS wild-type protein (Homo sapiens, UniProt P01112); experiment: Binding to HRAS by surface plasmon resonance (SPR), KD and KD ratio to KRAS
Procedure, shortened: as §1

[4] = ratio of the KD value with respect to GDP-bound NRAS wild-type protein to the KD value with respect to KRAS
[5] = ratio of the KD value with respect to HRAS wild-type protein to the KD value with respect to KRAS
[6] = ratio of KD value for GDP-bound NRAS wild-type protein to KD value for KRAS (SPR)
[7] = ratio of KD value for HRAS wild-type protein to KD value for KRAS (SPR)

HRAS wild-type protein, sequence (P01112 whole entry): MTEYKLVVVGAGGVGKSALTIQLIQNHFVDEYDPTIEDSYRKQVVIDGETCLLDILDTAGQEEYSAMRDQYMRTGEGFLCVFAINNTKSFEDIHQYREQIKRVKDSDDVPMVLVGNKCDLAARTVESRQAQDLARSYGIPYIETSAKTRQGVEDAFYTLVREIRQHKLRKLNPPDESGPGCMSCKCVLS
GDP-bound NRAS wild-type protein, sequence (P01111 whole entry): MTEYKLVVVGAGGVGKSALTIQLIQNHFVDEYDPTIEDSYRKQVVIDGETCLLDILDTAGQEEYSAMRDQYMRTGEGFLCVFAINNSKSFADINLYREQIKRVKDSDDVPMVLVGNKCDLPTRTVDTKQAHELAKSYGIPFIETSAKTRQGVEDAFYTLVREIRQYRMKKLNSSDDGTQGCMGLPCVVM
GDP-bound KRAS wild-type protein, sequence (P01116 1-188 isoform P01116-2): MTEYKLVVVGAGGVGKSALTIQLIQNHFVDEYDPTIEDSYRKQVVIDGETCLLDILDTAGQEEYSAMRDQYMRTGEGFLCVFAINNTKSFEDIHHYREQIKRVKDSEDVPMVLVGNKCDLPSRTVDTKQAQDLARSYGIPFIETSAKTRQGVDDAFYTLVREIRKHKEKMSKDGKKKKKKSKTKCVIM

Structure (SMILES)	IC50 [1] [nM]	Kd [2] [nM]	NRAS /KRAS [3, 4]	HRAS /KRAS (HRAS wild-type protein; [5])	NRAS /KRAS [3, 6]	HRAS /KRAS (HRAS wild-type protein; [7])	NRAS /KRAS ([3]; ratio of KD with respect to GDP-bound NRAS wild-type protein to KD with respect to KRAS)	HRAS /KRAS (HRAS wild-type protein; ratio of KD with respect to HRAS wild-type protein to KD with respect to KRAS)
CC[C@H](C)[C@@H]1NC(=O)[C@H](CC)N(C)C(=O)C[C@@H](C(=O)N(C)C)N(CC)C(=O)[C@H](C2CCCC2)N(C)C(=O)C2(CCC2)NC(=O)[C@@H]2C[C@H](N3CCC(F)(F)CC3)CN2C(=O)[C@H](CCc2cc(F)c(C(F)(F)F)c(F)c2)NC(=O)CN(C)C(=O)[C@H](Cc2ccc(C(F)(F)F)cc2)N2CCCC[C@@H](C2=O)N(C)C(=O)CN(C)C1=O [PP0659]	184		B (a compound having 3 or more and less than 10 is denoted as B)	B (a compound having 3 or more and less than 10 is denoted as B)				
CCO[C@@H]1C[C@H]2C(=O)N(C)C3(CCCC3)C(=O)N(C)[C@@H](C3CCCC3)C(=O)N(C)[C@H](C(=O)N(C)C)CC(=O)N(C)[C@@H](CC)C(=O)N[C@@H]([C@@H](C)CC)C(=O)N(C)CC(=O)N(C)[C@H]3C/C=C\CCN(C3=O)[C@@H](Cc3ccc(C(F)(F)F)cc3)C(=O)N(C)CC(=O)N[C@@H](CCc3cc(F)c(C(F)(F)F)c(F)c3)C(=O)N2C1 [PP1804]	3.5				A (a compound having 10 or more and less than 20 is denoted as A)	A (a compound having 10 or more and less than 20 is denoted as A)		
CCC[C@H]1C(=O)N[C@@H]([C@@H](C)CC)C(=O)N(C)CC(=O)N(C)[C@H]2C/C=C\CCN(C2=O)[C@@H](Cc2ccc(C(F)(F)F)cc2)C(=O)N(C)CC(=O)N[C@@H](CCc2cc(F)c(C(F)(F)F)c(F)c2)C(=O)N2C[C@H](OCC)C[C@H]2C(=O)NC2(CCC2)C(=O)N(C)[C@@H](C2CCCC2)C(=O)N(C)[C@H](C(=O)N(C)CCC)CC(=O)N1C [PP1389]	2.4						AA (a compound having 20 or more is denoted as AA)	A (a compound having 10 or more and less than 20 is denoted as A)
CCCN1C(=O)CN(C)C(=O)CN(C)C(=O)[C@H]([C@@H](C)CC)NC(=O)[C@H](CC(C)C)N(C)C(=O)C[C@@H](C(=O)N2CCOCC2)N(C)C(=O)[C@H](C2CCCC2)N(CC)C(=O)C2(CCC2)NC(=O)[C@@H]2CCCN2C(=O)[C@H](CCc2ccc(C(F)(F)F)c(Cl)c2)NC(=O)CN(C)C(=O)[C@@H]1Cc1ccc(C(F)(F)F)cc1 [PP1952] ([NMeL]I[Sar][Sar][NPrPhe(4-CF3)][Sar][hPhe(3-Cl-4-CF3)]P[Ac4c][X30][NMeD]-Morpholide; lactam N-11)	14		B (a compound having 3 or more and less than 10 is denoted as B)	B (a compound having 3 or more and less than 10 is denoted as B)				

Second part, led by results:

IC50 [1] [nM]	Kd [2] [nM]	Structure (SMILES)	NRAS /KRAS [3, 4]	HRAS /KRAS (HRAS wild-type protein; [5])	NRAS /KRAS [3, 6]	HRAS /KRAS (HRAS wild-type protein; [7])	NRAS /KRAS ([3]; ratio of KD with respect to GDP-bound NRAS wild-type protein to KD with respect to KRAS)	HRAS /KRAS (HRAS wild-type protein; ratio of KD with respect to HRAS wild-type protein to KD with respect to KRAS)
3.5	0.27	CCCCN1C(=O)[C@@H]2CCN2C(=O)[C@H](C)N(C)C(=O)[C@H]([C@@H](C)CC)NC(=O)[C@H](CC(C)C)N(C)C(=O)C[C@@H](C(=O)N2CCOCC2)N(C)C(=O)[C@H](C2CCCC2)N(C)C(=O)C2(CCCC2)NC(=O)[C@@H]2CCCN2C(=O)[C@H](CCc2ccc(C(F)(F)F)c(Cl)c2)NC(=O)CN(C)C(=O)[C@@H]1Cc1ccc(C)cc1 [PP0055] ([NMeL]I[NMeA][Aze][X1][Sar][hPhe(3-Cl-4-CF3)]P[Ac5c][NMeGly(cPent)][NMeD]-Morpholide; lactam N-11)						
10.7		CC[C@H](C)[C@@H]1NC(=O)[C@H](CC2CC2)N(C)C(=O)C[C@@H](C(=O)N(C)C)N(C)C(=O)[C@H](C2CCCC2)N(C)C(=O)C2(CCC2)NC(=O)[C@@H]2C[C@@H](F)CN2C(=O)[C@H](CCc2cc(F)c(C(F)(F)F)c(F)c2)NC(=O)CN(C)C(=O)[C@H](Cc2ccc(C(F)(F)F)cc2)N2CC/C=C\C[C@@H](C2=O)N(C)C(=O)CN(C)C1=O [PP1497]			A (a compound having 10 or more and less than 20 is denoted as A)	A (a compound having 10 or more and less than 20 is denoted as A)		
9.3		C#CC[C@H]1C(=O)N[C@@H]([C@@H](C)CC)C(=O)N(C)CC(=O)N(C)[C@H]2C/C=C\CCN(C2=O)[C@@H](Cc2ccc(C(F)(F)F)cc2)C(=O)N(C)CC(=O)N[C@@H](CCc2ccc(C(F)(F)F)c(OC)c2)C(=O)N2C[C@H](OCC)C[C@H]2C(=O)NC2(CC(C)(C)C2)C(=O)N(C)[C@@H](C2CCCC2)C(=O)N(C)[C@H](C(=O)N(C)CCC)CC(=O)N1C [PP2053]	A (a compound having 10 or more and less than 20 is denoted as A)	A (a compound having 10 or more and less than 20 is denoted as A)				

Source: patent EP4603105A1, “PHARMACEUTICAL COMPOSITION CONTAINING CYCLIC COMPOUND HAVING SELECTIVE KRAS INHIBITORY EFFECT AGAINST HRAS AND NRAS” (CHUGAI SEIYAKU KABUSHIKI KAISHA, priority 2022, dated 2024)
